Measurements reported in ChEMBL document CHEMBL1201862, “PubChem BioAssay data set” (2004).
Calls of active or inactive are those of the source.

Experiments:
[1] = target: Genome polyprotein (dengue virus type 2, UniProt P29990); assay: Dengue-2 NS5 methyltransferase inhibitors, primary screen, biochemical, confirmation dose response (AID 588689); type: functional
[2] = target: FAD-linked sulfhydryl oxidase ALR (Homo sapiens, UniProt P55789); assay: inhibitors of human ALR sulfhydryl oxidase, dose response, biochemical, H2O2 detection, luminescence, cherry-pick (AID 493248)
[3] = target: T1, Rac GTPase-activating protein 1 (Homo sapiens, UniProt Q9H0H5); assay: MgcRacGAP GTPase-activating activity inhibitors, confirmation, biochemical, ADP Hunter fluorescence, primary and confirmatory (AID 624330); type: functional
T1 sequence (Q9H0H5 whole entry): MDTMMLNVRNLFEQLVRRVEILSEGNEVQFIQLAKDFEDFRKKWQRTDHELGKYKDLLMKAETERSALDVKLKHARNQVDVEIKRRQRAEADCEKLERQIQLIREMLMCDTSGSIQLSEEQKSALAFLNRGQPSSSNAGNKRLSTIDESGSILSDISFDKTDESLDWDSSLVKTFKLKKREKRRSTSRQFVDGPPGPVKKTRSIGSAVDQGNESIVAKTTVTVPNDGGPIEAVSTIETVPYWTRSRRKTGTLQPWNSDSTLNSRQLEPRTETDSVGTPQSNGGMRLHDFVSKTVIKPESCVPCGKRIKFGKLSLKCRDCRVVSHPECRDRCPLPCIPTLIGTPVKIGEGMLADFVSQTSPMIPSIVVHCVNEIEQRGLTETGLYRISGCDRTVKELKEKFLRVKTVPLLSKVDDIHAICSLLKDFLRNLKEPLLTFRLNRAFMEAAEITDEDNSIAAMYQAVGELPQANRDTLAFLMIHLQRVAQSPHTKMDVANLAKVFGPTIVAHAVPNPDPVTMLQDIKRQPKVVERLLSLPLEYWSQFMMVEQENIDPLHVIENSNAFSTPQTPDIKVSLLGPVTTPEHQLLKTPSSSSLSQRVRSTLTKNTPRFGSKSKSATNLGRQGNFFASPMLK

[4] = target: Large T antigen (Simian virus 40, UniProt P03070); type: functional, Betapolyomavirus macacae;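 note: Confirmatory-stage PubChem screen for compounds that inhibit SV40 T antigen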
[5] = HEp-2 cell cytotoxicity, dose response, cytotoxicity control for RSV inhibitor project, HTS (AID 2410); type: functional; conditions: human respiratory syncytial virus
[6] = target: T2, Coagulation factor XII (Homo sapiens, UniProt P00748); type: functional;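 note: activated factor XIIa alpha cleaving a fluorogenic AMC peptide substrate; inhibitor potency from loss of enzyme activity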
T2 sequence (P00748 whole entry): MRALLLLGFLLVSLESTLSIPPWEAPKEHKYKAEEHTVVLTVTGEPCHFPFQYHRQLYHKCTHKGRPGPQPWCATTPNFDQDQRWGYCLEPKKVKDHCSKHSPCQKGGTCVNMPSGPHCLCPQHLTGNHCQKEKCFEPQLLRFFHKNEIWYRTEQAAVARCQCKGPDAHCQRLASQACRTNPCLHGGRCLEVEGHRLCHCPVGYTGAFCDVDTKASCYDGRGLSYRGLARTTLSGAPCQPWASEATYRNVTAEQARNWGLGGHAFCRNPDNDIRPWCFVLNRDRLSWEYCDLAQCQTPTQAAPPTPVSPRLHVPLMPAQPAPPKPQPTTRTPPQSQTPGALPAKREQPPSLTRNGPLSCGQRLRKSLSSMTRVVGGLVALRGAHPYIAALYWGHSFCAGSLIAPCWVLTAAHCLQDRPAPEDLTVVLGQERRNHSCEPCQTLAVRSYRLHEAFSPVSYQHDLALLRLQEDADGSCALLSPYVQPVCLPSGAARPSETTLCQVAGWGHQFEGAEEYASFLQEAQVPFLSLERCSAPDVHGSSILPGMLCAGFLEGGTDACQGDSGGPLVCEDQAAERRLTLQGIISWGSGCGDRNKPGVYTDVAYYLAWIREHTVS

[7] = target: T3, Leucine aminopeptidase (Plasmodium falciparum 3D7, UniProt Q8IL11); assay: P. falciparum M17LAP inhibitors, primary screen, biochemical, fluorogenic H-Leu-NHMec substrate, 1536-well (AID 1619); type: functional
T3 sequence (Q8IL11 whole entry): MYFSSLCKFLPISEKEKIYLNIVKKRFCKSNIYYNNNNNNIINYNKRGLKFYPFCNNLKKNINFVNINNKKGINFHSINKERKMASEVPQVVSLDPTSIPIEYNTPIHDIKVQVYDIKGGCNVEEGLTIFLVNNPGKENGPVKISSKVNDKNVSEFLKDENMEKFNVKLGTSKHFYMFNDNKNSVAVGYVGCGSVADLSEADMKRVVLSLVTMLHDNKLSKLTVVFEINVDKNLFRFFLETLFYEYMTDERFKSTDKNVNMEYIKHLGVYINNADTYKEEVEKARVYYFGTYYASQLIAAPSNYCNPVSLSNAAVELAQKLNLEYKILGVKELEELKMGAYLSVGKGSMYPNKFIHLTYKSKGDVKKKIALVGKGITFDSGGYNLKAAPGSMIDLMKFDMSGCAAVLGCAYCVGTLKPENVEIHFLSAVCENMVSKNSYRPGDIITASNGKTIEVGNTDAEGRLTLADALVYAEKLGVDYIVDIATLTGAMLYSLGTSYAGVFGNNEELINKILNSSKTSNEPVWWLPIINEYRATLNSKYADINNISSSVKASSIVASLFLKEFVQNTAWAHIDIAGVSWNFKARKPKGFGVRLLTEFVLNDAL

[8] = target: Cytochrome P450 2C19 (Homo sapiens, UniProt P33261); assay: Cytochrome panel assay with activity outcomes. Panel member name: p450-cyp2c19 Compounds with AC50 equal or less than 10 uM are considered active; type: functional; conditions: read-out: AC50
[9] = target: Cytochrome P450 3A4 (Homo sapiens, UniProt P08684);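 note: CYP3A4 tested as one member of a cytochrome P450 panel screen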
[10] = target: Cytochrome P450 2C9 (Homo sapiens, UniProt P11712)
[11] = Luminescence Cell-Based Dose Confirmation HTS to Identify Inhibitors of Platelet Dense Granule Release. [Related pubchem assays: 1663 (Primary HTS), 1678 (Summary of Project)]; type: functional
[12] = target: Luciferin 4-monooxygenase (Photinus pyralis, UniProt P08659); assay: firefly luciferase enzyme inhibitors, dose response, biochemical, luminescence (AID 1891)
[13] = target: T4, Cytochrome P450 1A2 (Homo sapiens, UniProt P05177);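 note: PubChem cytochrome P450 panel assay, CYP1A2 panel member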
T4 sequence (P05177 whole entry): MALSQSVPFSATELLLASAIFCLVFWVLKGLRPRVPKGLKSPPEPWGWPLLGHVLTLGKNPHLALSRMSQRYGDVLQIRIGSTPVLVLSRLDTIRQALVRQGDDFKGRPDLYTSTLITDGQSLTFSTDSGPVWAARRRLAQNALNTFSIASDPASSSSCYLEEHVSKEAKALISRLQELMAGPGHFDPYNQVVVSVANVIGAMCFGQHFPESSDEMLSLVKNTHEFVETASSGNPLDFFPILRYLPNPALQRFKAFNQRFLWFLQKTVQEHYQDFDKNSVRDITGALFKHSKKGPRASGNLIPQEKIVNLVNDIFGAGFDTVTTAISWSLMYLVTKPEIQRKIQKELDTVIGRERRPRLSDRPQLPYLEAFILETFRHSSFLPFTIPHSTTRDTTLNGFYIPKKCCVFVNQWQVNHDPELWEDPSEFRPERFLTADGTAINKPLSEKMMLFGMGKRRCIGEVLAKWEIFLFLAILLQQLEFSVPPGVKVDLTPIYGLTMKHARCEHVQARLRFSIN

[14] = Shn3 3'UTR reporter inhibitors, dose response, cell-based, Clone20 osteoblasts, firefly luciferase, cherry-picked (AID 624132); type: functional;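 note: firefly luciferase luminescence from reporter carrying the Shn3 3'UTR in osteoblasts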
[15] = control 3'UTR Renilla luciferase suppression, dose response, counter-screen for Shn3 inhibitor project, cell-based, Clone20-Shn3RL, cherry-picked (AID 624133); type: functional
[16] = growth suppression of PTEN-null colon cells, dose response, cell-based, HCT116 PTEN knockout (AID 1047); type: functional;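 note: HCT116 colon tumor cells with PTEN knocked out; cells exposed to compound for 60 hours before readout; potency for loss of cell viability measured by luminescence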
[17] = growth suppression of beta-catenin-knockout colon cells, dose response, cell-based, HCT116, human colon tumor (AID 1045); type: functional;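 note: HCT116 colon tumor cells with beta catenin knocked out; cells exposed to compound for 60 hours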

Sequence of Large T antigen (P03070 whole entry): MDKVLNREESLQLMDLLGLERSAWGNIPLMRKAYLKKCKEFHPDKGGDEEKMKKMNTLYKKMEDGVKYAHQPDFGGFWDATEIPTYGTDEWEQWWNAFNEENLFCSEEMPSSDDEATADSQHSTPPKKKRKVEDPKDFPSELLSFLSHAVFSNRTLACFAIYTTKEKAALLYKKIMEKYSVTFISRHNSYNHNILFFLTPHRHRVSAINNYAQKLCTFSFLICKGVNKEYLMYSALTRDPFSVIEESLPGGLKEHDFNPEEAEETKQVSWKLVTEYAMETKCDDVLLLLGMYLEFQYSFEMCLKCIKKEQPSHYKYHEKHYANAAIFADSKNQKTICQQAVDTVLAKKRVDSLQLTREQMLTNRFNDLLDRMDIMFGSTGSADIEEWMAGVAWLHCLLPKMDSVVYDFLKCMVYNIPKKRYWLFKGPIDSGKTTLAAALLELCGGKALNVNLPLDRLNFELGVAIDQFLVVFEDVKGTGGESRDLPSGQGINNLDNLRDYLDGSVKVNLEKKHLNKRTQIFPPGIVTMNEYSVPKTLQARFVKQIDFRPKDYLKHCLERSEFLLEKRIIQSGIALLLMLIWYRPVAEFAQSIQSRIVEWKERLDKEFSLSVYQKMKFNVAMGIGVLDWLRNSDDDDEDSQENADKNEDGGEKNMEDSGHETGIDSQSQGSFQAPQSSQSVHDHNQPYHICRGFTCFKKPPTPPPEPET
Sequence of Genome polyprotein (P29990 2492-3391 limits assumed): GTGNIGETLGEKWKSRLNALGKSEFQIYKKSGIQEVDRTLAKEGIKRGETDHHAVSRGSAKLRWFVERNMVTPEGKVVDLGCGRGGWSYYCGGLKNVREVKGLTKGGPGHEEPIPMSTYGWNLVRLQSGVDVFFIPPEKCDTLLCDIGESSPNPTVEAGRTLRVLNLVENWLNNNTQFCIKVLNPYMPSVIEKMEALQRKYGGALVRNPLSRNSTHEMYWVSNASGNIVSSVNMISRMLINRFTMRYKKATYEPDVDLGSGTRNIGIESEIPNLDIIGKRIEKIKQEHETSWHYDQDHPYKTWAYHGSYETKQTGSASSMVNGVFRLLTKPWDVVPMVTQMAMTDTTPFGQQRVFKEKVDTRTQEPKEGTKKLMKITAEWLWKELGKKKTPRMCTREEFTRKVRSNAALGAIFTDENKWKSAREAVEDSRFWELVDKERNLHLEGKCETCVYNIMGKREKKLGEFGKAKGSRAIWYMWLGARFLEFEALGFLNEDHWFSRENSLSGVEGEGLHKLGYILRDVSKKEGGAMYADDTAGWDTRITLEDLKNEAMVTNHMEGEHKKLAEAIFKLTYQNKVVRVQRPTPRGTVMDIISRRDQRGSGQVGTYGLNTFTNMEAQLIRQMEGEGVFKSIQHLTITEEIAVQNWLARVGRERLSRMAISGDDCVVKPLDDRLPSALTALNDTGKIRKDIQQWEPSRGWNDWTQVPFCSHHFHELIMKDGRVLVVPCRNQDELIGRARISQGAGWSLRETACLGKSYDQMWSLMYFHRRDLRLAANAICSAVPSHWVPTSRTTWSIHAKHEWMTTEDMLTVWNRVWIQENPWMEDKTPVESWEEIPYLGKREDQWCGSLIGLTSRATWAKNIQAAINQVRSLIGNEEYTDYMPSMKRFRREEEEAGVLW
Sequence of Cytochrome P450 2C9 (P11712 whole entry): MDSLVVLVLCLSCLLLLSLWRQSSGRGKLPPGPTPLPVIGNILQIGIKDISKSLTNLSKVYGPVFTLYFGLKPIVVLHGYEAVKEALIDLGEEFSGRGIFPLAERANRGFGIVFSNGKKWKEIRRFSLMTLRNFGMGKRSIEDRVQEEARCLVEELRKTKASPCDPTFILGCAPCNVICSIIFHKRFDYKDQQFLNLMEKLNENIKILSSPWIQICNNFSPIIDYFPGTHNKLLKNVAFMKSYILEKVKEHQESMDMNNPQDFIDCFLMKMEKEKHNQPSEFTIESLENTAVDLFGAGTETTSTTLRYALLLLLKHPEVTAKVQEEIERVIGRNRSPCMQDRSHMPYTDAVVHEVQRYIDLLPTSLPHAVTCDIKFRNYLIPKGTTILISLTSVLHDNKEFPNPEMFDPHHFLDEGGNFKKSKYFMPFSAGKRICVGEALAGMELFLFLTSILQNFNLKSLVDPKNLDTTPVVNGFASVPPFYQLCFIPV
Sequence of Cytochrome P450 3A4 (P08684 whole entry): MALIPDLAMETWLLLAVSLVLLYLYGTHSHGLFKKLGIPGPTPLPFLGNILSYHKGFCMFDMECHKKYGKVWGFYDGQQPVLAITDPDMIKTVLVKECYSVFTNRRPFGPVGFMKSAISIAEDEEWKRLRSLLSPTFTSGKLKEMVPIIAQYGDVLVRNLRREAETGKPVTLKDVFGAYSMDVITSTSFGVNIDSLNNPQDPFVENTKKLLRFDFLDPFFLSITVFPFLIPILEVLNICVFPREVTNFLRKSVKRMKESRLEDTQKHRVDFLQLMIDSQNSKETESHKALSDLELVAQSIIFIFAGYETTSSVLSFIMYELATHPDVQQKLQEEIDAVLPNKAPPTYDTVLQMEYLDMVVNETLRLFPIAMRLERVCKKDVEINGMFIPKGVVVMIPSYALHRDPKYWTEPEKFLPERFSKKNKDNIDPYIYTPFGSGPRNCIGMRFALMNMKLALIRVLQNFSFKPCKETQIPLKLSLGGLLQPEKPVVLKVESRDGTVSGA
Sequence of FAD-linked sulfhydryl oxidase ALR (P55789 whole entry): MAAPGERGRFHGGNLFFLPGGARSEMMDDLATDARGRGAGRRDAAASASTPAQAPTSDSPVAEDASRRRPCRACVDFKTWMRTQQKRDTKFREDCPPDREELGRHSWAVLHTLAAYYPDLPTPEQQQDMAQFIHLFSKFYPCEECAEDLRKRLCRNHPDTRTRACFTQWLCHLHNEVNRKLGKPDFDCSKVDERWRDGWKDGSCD
Sequence of Luciferin 4-monooxygenase (P08659 whole entry): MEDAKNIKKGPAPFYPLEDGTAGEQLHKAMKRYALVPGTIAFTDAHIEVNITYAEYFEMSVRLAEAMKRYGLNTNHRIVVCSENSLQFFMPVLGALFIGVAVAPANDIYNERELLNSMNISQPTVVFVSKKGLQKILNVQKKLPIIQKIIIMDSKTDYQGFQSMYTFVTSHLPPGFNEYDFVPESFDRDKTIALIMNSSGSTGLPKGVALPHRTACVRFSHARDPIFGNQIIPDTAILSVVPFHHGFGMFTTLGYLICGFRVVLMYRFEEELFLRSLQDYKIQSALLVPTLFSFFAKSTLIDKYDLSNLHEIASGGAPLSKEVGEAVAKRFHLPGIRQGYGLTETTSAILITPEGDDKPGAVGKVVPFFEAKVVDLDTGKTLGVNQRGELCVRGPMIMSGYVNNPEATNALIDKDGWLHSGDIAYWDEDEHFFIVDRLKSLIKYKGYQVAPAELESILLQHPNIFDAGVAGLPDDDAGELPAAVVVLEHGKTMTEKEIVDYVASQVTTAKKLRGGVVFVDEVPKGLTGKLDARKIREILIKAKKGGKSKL
Sequence of Cytochrome P450 2C19 (P33261 whole entry): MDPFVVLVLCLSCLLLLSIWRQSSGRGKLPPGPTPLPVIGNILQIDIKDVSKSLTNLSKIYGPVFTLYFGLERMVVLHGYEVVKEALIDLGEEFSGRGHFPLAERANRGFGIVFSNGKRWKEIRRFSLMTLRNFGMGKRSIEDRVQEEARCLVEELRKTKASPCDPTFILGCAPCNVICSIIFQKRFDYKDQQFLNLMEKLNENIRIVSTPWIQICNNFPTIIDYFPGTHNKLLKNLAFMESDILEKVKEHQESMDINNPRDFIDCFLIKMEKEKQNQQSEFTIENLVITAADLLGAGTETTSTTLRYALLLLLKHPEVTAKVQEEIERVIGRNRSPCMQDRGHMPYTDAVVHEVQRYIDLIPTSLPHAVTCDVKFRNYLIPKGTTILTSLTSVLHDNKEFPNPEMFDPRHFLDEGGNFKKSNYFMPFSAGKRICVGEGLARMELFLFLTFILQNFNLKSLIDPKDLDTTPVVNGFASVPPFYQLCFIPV

With O=C(NNc1cc(Br)c(O)c(Br)c1)c1ccccc1 the IC50 [1] was 63.2 µM (active) and the AC50 [2] was 0.192 µM (active).

In the case of O=C(N/N=C/c1ccc(O)c(O)c1)c1cccc(S(=O)(=O)N2CCCCC2)c1, the IC50 [3] is reported as 85.3 µM (active) and the IC50 [4] is reported as 4.75 µM (active).

With C/N=c1\scc(C)n1/N=C/c1ccc(O)cc1 the IC50 [3] was 20.9 µM (active) and the IC50 [4] was 8.35 µM (active).

In the case of CC(C)c1cccc(-c2ccc3c(c2)S(=O)(=O)c2cccc(C(=O)O)c2C3=O)c1, the IC50 [1] is reported as 66.2 µM (active).

With Cc1ccc2nc(NC(=O)C3CCCN(S(=O)(=O)c4cccc5nsnc45)C3)sc2c1 (stereo not given) the CC50 [5] was 29.4 µM (active) and the IC50 [6] was > 50 µM (inactive).

For Nc1n[nH]c(SCC(=O)Nc2ccc3c(c2)CCC3)n1, the IC50 [7] was 45.2 µM (active).

In the case of O=C(c1ccc2ncsc2c1)N1CCN(c2ccc(O)cc2)CC1, the AC50 [8] is reported as 20 µM (inconclusive), the AC50 [9] is reported as 3.55 µM (inconclusive) and the IC50 [4] is reported as 14.4 µM (active). The AC50 [10] was 1.78 µM (inconclusive).

For O=C(CN=C(S)N(Cc1ccccc1)Cc1ccccc1F)NCCc1ccccc1, the IC50 [6] was > 50 µM (inactive).

For Cc1c(C(=O)N2CCOCC2)sc2ncnc(N3CCc4ccccc4C3)c12, the IC50 [6] was > 50 µM (inactive), the EC50 [11] was > 112 µM (not active) and the EC50 [12] was > 112 µM (not active).

In the case of O=C(c1ccco1)N1CCN(C(=O)c2[nH]ncc2[N+](=O)[O-])CC1, the IC50 [7] is reported as 2.22 µM (active).

With COC(=O)CC1C(=O)NCCN1C(=S)Nc1cccc(C)c1 (stereo not given) the IC50 [6] was > 50 µM (inactive).

In the case of Cc1ccc2cc(C=C3C(=O)NC(=O)NC3=O)c(O)nc2c1, the IC50 [4] is reported as > 100 µM (active) and the IC50 [1] is reported as 79 µM (active).

For Clc1ccccc1CNc1ncnc2nc[nH]c12, the IC50 [7] was 48.3 µM (active).

For Cc1sc(NC(=O)c2ccco2)c(CN2CCN(c3ccc(F)cc3)CC2)c1C, the IC50 [6] was > 50 µM (inactive).

For CC(=O)Nc1ccc(NC(=O)CSc2ncnn2-c2ccccc2)cc1, the IC50 [6] was > 50 µM (inactive), the AC50 [9] was 28.2 µM (inconclusive) and the AC50 [10] was 12.6 µM (inconclusive). The AC50 [13] was 28.2 µM (inconclusive).

In the case of O=C1NCCOC(=O)[C@@H](Cc2ccc(F)cc2)CC/C=C/C[C@@H]1CC(=O)N(CCO)Cc1ccccc1, the AC50 [14] is reported as > 70 µM (inactive) and the AC50 [15] is reported as 29.6 µM (active).

With COCCNC(=O)CC(NS(=O)(=O)c1ccc(C)cc1)c1ccco1 (stereo not given) the IC50 [6] was > 50 µM (inactive).

In the case of CC1CCOC2(O1)C(=O)Nc1ccccc12 (stereo not given), the IC50 [6] is reported as > 50 µM (inactive).

In the case of Nc1nc(-c2cccs2)c(NC(=O)c2ccccc2)s1, the EC50 [16] is reported as 27.4 µM (active), the IC50 [4] is reported as 23.2 µM (active) and the EC50 [17] is reported as 23.8 µM (active).
